Reference: PubChem BioAssay AID1845204 (Molecular Pharmacology Branch, DTP, NCI, 2023)
Values joined by “and” are separate entries in the source; they are usually repeats but may differ in a detail not shown here. Equal entries are not always repeated.

System: HSSY-II tumor spheroid viability
Test: Anticancer human tumor HSSY-II cell line growth inhibition;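 note: spheroids exposed to compounds for seven days before reading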;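 for viability, T/C: percent of DMSO vehicle control viability so 100% = untreated level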
Settings: spheroids with HUVEC and MSC; for viability, T/C: stronger effect = lower value; active = viability on the fitted dose curve at most 10% of control; inactive = the rest
From the text: Multicellular complex tumor spheroid response to DNA repair inhibitors in combination with DNA-damaging drugs
This study explores the anticancer activities of DNA-damaging drugs and inhibitors of DNA damage repair, both as single agents and in combinations. Complex tumor spheroids comprised of malignant cells, endothelial cells and mesenchymal stem cells served as an in vitro model for human solid tumors. This model system incorporates physiologically relevant features and patient-derived or established malignant cell lines with clinically relevant genetic alterations from many tumor types. Twenty-six patient-derived or established malignant cell lines were evaluated representing sarcoma, melanoma, small cell lung cancer (SCLC), non-small cell lung cancer (NSCLC), as well as bladder, ovarian and pancreatic cancers. The concentration ranges selected for each drug and investigational agent were based upon clinically achievable concentrations if the clinical Cmax of the agent was known.
Compounds. The drugs and compounds olaparib (NSC753686), talazoparib (NSC767125), berzosertib (NSC777718), elimusertib (NSC800525), nedisertib (NSC802822), VX-984 (NSC792969), AZD-1390 (NSC803789), temozolomide (NSC362856), topotecan (NSC609699), trabectedin (NSC813783), staurosporine (NSC755774), and gemcitabine (NSC613327) were obtained from the National Cancer Institute (NCI) Developmental Therapeutics Program Chemical Repository. The FDA-approved anticancer drug set is available from the Developmental Therapeutics Program at https://dtp.cancer.gov/organization/dscb/obtaining/available_plates.htm. […] The stock solutions were prepared in dimethyl sulfoxide (DMSO, Sigma-Aldrich, St. Louis, MO, cat. D2650) at 400-fold the tested concentration and stored at -70 degrees C. Prior to their use, the stock solutions were diluted in fresh medium and the final DMSO concentration in the assay was 0.25% (v/v). All drugs and investigational agents were tested over a range starting from a high concentration at or near the clinical Cmax and decreasing in half-log increments. If the clinical Cmax for an agent had not been determined, the highest concentration tested was 10 microM.
Cell Lines. The patient-derived cancer cell (PDC) lines: 156681-154-R-J1-PDC, 283228-195-R-J1-PDC, 287954-098-R-J1-PDC, 292921-168-R-J2-PDC, 349418-098-R-PDC, 425362-245-T-J1-PDC, 556581-035-R-J1-PDC, and BL0293-F563-PDC were received from the NCI Patient-Derived Models Repository (PDMR, https://pdmr.cancer.gov). The established cell lines HS-SY-2 (RRID:CVCL_8719), MPNST, and SYO-1 (RRID:CVCL_7146) were obtained from the Sloan Kettering Institute. The alveolar soft parts sarcoma cell line ASPS-1 (RRID:CVCL_S738) was established at the NCI and grown from internal seed stocks. The following established cell lines were purchased from the American Type Culture Collection (ATCC, Manassas, VA): G-401 (ATCC, cat. CRL-1441, RRID:CVCL_0270), SW982 (ATCC, cat. HTB-93, RRID:CVCL_1734), VA-ES-BJ (ATCC, cat. CRL-2138, RRID:CVCL_1785), NCI-H719 (ATCC, cat. CRL-5837, RRID:CVCL_1582), NCI-H196 (ATCC, cat. CRL-5823, RRID:CVCL_1509), NCI-H841 (ATCC, cat. CRL-5845, RRID:CVCL_1595), NCI-H1618 (ATCC, cat. CRL-5879, RRID:CVCL_1480), NCI-H1876 (ATCC, cat. CRL-5902, RRID:CVCL_1503), DMS 114 (ATCC, cat. CRL-2066; RRID:CVCL_1174), NCI-H211 (ATCC, cat. CRL-5824; RRID:CVCL_1529), and SW 1271 (ATCC, cat. CRL-2177, RRID:CVCL_1716). The small cell lung cancer cell line COR-L88 was purchased from Sigma-Aldrich (cat. 92031917-1VL, RRID:CVCL_1141). The non-small cell lung cancer cell lines NCI-H226 (RRID:CVCL_1544) and NCI-H322M (RRID:CVCL_1557) were established at the NCI and grown from internal seed stocks. Pooled donor human umbilical vein endothelial cells (HUVEC, Lonza, cat. CC-2519) and human mesenchymal stem cells (hMSC, Lonza, cat. PT-2501) were purchased from Lonza (Walkersville, MD).
Cell Culture. All cells were maintained in an incubator at 37 degrees C and 5% CO2 with 95% humidity. […]

[1] = curve of first compound, second compound 0.003 µM
[2] = curve of first compound, second compound 0.00949 µM
[3] = curve of first compound, second compound 0.03 µM
[4] = curve of first compound, second compound 0.0949 µM
[5] = curve of first compound, second compound 0.3 µM
[6] = second compound 0.003 µM, first compound 0.0316 µM
[7] = second compound 0.003 µM, first compound 0.1 µM
[8] = second compound 0.003 µM, first compound 0.316 µM
[9] = second compound 0.003 µM, first compound 1 µM
[10] = second compound 0.003 µM, first compound 3.16 µM
[11] = second compound 0.003 µM, first compound 10 µM
[12] = second compound 0.00949 µM, first compound 0.0316 µM
[13] = second compound 0.00949 µM, first compound 0.1 µM
[14] = second compound 0.00949 µM, first compound 0.316 µM
[15] = second compound 0.00949 µM, first compound 1 µM
[16] = second compound 0.00949 µM, first compound 3.16 µM
[17] = second compound 0.00949 µM, first compound 10 µM
[18] = second compound 0.03 µM, first compound 0.0316 µM
[19] = second compound 0.03 µM, first compound 0.1 µM
[20] = second compound 0.03 µM, first compound 0.316 µM
[21] = second compound 0.03 µM, first compound 1 µM
[22] = second compound 0.03 µM, first compound 3.16 µM
[23] = second compound 0.03 µM, first compound 10 µM
[24] = second compound 0.0949 µM, first compound 0.0316 µM
[25] = second compound 0.0949 µM, first compound 0.1 µM
[26] = second compound 0.0949 µM, first compound 0.316 µM
[27] = second compound 0.0949 µM, first compound 1 µM
[28] = second compound 0.0949 µM, first compound 3.16 µM
[29] = second compound 0.0949 µM, first compound 10 µM
[30] = second compound 0.3 µM, first compound 0.0316 µM
[31] = second compound 0.3 µM, first compound 0.1 µM
[32] = second compound 0.3 µM, first compound 0.316 µM
[33] = second compound 0.3 µM, first compound 1 µM
[34] = second compound 0.3 µM, first compound 3.16 µM
[35] = second compound 0.3 µM, first compound 10 µM

[2H]c1nc(C)nc([2H])c1-c1cc(NC[C@@H](C)c2cccc3c(C(=O)NC)ccnc23)ncn1 + CC[C@@]1(O)C(=O)OCc2c1cc1n(c2=O)Cc2cc3c(CN(C)C)c(O)ccc3nc2-1
> 10000 nM: IC50 [1] | IC50 [2]
< 31.6 nM: IC50 [3] | IC50 [4] | IC50 [5]
active: viability, T/C [30] 6.74% | viability, T/C [31] 7.54% | viability, T/C [32] 7.42% | viability, T/C [33] 6.87% | viability, T/C [34] 7.23% | viability, T/C [35] 8.83%
inactive: viability, T/C [6] 89.6% | viability, T/C [7] 93.9% | viability, T/C [8] 90.5% | viability, T/C [9] 96.5% | viability, T/C [10] 87.9% | viability, T/C [11] 78.7% | viability, T/C [12] 62% | viability, T/C [13] 64.5% | viability, T/C [14] 61.5% | viability, T/C [15] 63.9% | viability, T/C [16] 58% | viability, T/C [17] 53.9% | viability, T/C [18] 14.2% | viability, T/C [19] 13.6% | viability, T/C [20] 11.1% | viability, T/C [21] 13.1% | viability, T/C [22] 14% | viability, T/C [23] 16.3% | viability, T/C [24] 11% | viability, T/C [25] 11.4% | viability, T/C [26] 9.48% | viability, T/C [27] 10.8% | viability, T/C [28] 11.6% | viability, T/C [29] 12%

CC(C)n1c(=O)n(C)c2cnc3cc(F)c(-c4ccc(OCCCN5CCCCC5)nc4)cc3c21 + CC[C@@]1(O)C(=O)OCc2c1cc1n(c2=O)Cc2cc3c(CN(C)C)c(O)ccc3nc2-1
< 31.6 nM: IC50 [1] | IC50 [2] | IC50 [3] | IC50 [4] | IC50 [5]
active: viability, T/C [17] 7.58% | viability, T/C [19] 9.85% | viability, T/C [20] 9.61% | viability, T/C [21] 7.8% | viability, T/C [22] 4.59% | viability, T/C [23] 2.72% | viability, T/C [25] 8.61% | viability, T/C [26] 8.35% | viability, T/C [27] 6.09% | viability, T/C [28] 4.16% | viability, T/C [29] 2.59% | viability, T/C [30] 6.62% | viability, T/C [31] 6.23% | viability, T/C [32] 5.88% | viability, T/C [33] 5.84% | viability, T/C [34] 4.56% | viability, T/C [35] 3.48%
inactive: viability, T/C [6] 48% | viability, T/C [7] 45.2% | viability, T/C [8] 51.9% | viability, T/C [9] 40.6% | viability, T/C [10] 14% | viability, T/C [11] 10.2% | viability, T/C [12] 15% | viability, T/C [13] 14.7% | viability, T/C [14] 14.3% | viability, T/C [15] 13% | viability, T/C [16] 9.79% | viability, T/C [18] 10.1% | viability, T/C [24] 9.24%

CC1COCCN1c1cc(-c2ccnn2C)c2ccnc(-c3ccn[nH]3)c2n1 (configuration not stated)
< 31.6 nM: IC50 (curve of compound)
active: viability, T/C (compound 0.1 µM) 6.39% and 6.26% and 6.5% | viability, T/C (compound 0.316 µM) 4.82% and 2.71% and 2.97% | viability, T/C (compound 1 µM) 4.16% and 1.96% and 2.24% | viability, T/C (compound 3.16 µM) 4.41% and 2.11% and 2.4% | viability, T/C (compound 10 µM) 6.25% and 2.76% and 2.66%
inactive: viability, T/C (compound 0.0316 µM) 13.6% and 27.8% and 22.3%
